Measured values: publication PMC6151984, “Novel Sulfamide-Containing Compounds as Selective Carbonic Anhydrase I Inhibitors” (Molecules : A Journal of Synthetic Chemistry and Natural …, 2017)
pKi: −log10 of the molar value.

What was measured:
Test in all cases: stopped-flow CO2 hydration assay
Assay type in all cases: biochemical
hCA IV = molecular target: T1, hCA IV (Homo sapiens, UniProt P22748)
T1 construct: gene CA4; recombinant, obtained in-house
Description: stopped-flow CO2 hydration assay on hCA IV

hCA I = molecular target: T2, hCA I (Homo sapiens, UniProt P00915)
T2 construct: gene CA1; recombinant, obtained in-house; cytosolic
Description: stopped-flow CO2 hydration assay on hCA I

hCA II = molecular target: T3, hCA II (Homo sapiens, UniProt P00918)
T3 construct: gene CA2; recombinant, obtained in-house; cytosolic
Description: stopped-flow CO2 hydration assay on hCA II

T1 sequence (P22748 19-284): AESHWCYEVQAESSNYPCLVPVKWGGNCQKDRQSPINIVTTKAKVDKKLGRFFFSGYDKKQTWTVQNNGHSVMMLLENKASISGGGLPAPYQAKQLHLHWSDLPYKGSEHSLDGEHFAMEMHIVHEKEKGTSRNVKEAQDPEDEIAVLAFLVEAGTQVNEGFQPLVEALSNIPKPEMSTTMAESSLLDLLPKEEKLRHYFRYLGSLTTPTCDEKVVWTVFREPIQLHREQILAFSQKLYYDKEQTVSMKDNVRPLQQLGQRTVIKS
T2 sequence (P00915 2-261): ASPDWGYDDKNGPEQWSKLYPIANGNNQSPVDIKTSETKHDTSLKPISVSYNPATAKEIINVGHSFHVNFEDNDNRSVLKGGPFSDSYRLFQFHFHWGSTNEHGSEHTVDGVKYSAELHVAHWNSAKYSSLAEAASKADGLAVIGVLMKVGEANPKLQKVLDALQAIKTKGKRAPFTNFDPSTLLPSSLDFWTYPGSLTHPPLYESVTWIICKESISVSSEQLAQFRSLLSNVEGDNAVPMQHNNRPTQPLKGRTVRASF

Row | Compound | Ki (hCA IV) [nM] | pKi (hCA I) | Ki (hCA II) [nM]
1 | NS(=O)(=O)Nc1ccccc1S(=O)(=O)NCCC(=O)N1CCN(C(c2ccccc2)c2ccccc2)CC1 [6a, N-(3-(4-Benzhydrylpiperazin-1-yl)-3-oxopropyl)-2-(sulfamoylamino)benzenesulfonamide] | 151 | 6.54 | 473
2 | NS(=O)(=O)Nc1cccc(S(=O)(=O)NCCC(=O)N2CCN(C(c3ccccc3)c3ccccc3)CC2)c1 [6b, N-(3-(4-Benzhydrylpiperazin-1-yl)-3-oxopropyl)-3-(sulfamoylamino)benzenesulfonamide] | 2360 | 7.08 | 419
3 | NS(=O)(=O)Nc1ccc(S(=O)(=O)NCCC(=O)N2CCN(C(c3ccccc3)c3ccccc3)CC2)cc1 [6c, N-(3-(4-Benzhydrylpiperazin-1-yl)-3-oxopropyl)-4-(sulfamoylamino)benzenesulfonamide] | 124 | 7.12 | 439
4 | NS(=O)(=O)Nc1ccccc1S(=O)(=O)NCCC(=O)N1CCN(C(c2ccc(F)cc2)c2ccc(F)cc2)CC1 [6d, N-(3-(4-(bis(4-Fluorophenyl)methyl)piperazin-1-yl)-3-oxopropyl)-2(sulfamoylamino)benzenesulfonamide] | 117 | 6.18 | 189
5 | NS(=O)(=O)Nc1cccc(S(=O)(=O)NCCC(=O)N2CCN(C(c3ccc(F)cc3)c3ccc(F)cc3)CC2)c1 [6e, N-(3-(4-(bis(4-Fluorophenyl)methyl)piperazin-1-yl)-3-oxopropyl)-3(sulfamoylamino)benzenesulfonamide] | 423 | 7.03 | 165
6 | NS(=O)(=O)Nc1ccc(S(=O)(=O)NCCC(=O)N2CCN(C(c3ccc(F)cc3)c3ccc(F)cc3)CC2)cc1 [6f, N-(3-(4-(bis(4-Fluorophenyl)methyl)piperazin-1-yl)-3-oxopropyl)-4-(sulfamoylamino)benzenesulfonamide] | 202 | 7.20 | 406
7 | NS(=O)(=O)Nc1ccccc1S(=O)(=O)N1CCCC(C(=O)N2CCN(C(c3ccccc3)c3ccccc3)CC2)C1 (stereo not drawn) [6g, (1-((2-Sulfamoylaminophenyl)sulfonyl)piperidin-3-yl)(4-benzhydrylpiperazin-1-yl)methanone] | 314 | 6.22 | 89.8

Other lines, results leading:

Row | Ki (hCA IV) [nM] | pKi (hCA I) | Ki (hCA II) [nM] | Compound
8 | 1620 | 7.15 | 911 | NS(=O)(=O)Nc1cccc(S(=O)(=O)N2CCCC(C(=O)N3CCN(C(c4ccccc4)c4ccccc4)CC3)C2)c1 (stereo not drawn) [6h, 4(1-((3-Sulfamoylaminophenyl)sulfonyl)piperidin-3-yl)(4-benzhydrylpiperazin-1-yl)methanone]
9 | 364 | 6.81 | 455 | NS(=O)(=O)Nc1ccc(S(=O)(=O)N2CCCC(C(=O)N3CCN(C(c4ccccc4)c4ccccc4)CC3)C2)cc1 (stereo not drawn) [6i, (1-((4-Sulfamoylaminophenyl)sulfonyl)piperidin-3-yl)(4-benzhydrylpiperazin-1-yl)methanone]
10 | 1500 | 5.56 | 6460 | NS(=O)(=O)Nc1ccccc1S(=O)(=O)N1CCCC(C(=O)N2CCN(C(c3ccc(F)cc3)c3ccc(F)cc3)CC2)C1 (stereo not drawn) [6j, (1-((2-Sulfamoylaminophenyl)sulfonyl)piperidin-3-yl)(4-(bis(4-fluorophenyl)methyl)piperazin-1-yl)methanone]
11 | 1380 | 7.34 | 753 | NS(=O)(=O)Nc1cccc(S(=O)(=O)N2CCCC(C(=O)N3CCN(C(c4ccc(F)cc4)c4ccc(F)cc4)CC3)C2)c1 (stereo not drawn) [6k, (1-((3-Sulfamoylaminophenyl)sulfonyl)piperidin-3-yl)(4-(bis(4-fluorophenyl)methyl)piperazin-1-yl)methanone]
12 | 467 | 6.49 | 786 | NS(=O)(=O)Nc1ccc(S(=O)(=O)N2CCCC(C(=O)N3CCN(C(c4ccc(F)cc4)c4ccc(F)cc4)CC3)C2)cc1 (stereo not drawn) [6l, (1-((4-Sulfamoylaminophenyl)sulfonyl)piperidin-3-yl)(4-(bis(4-fluorophenyl)methyl)piperazin-1-yl)methanone]
